Measured values reported in patent US8865623B2, “Herbicidally active cyclic diones and derivatives thereof, processes for their preparation, compositions, and method of controlling weeds” (Syngenta Limited, priority 2009, dated 2014).

Legend:
Assay type in all cases: in vivo
[1] = test system: Alopecurus myosuroides (ALOMY); test: Pre-emergence herbicidal activity, glasshouse pot test; conditions: evaluated after 13 days; for pest or weed control at 250 g/ha: Alopecurus myosuroides, 312 h, Rate 250 g/ha, read-out: Pre-emergence activity ALOMY (100=total damage to plant; 0=no damage to plant); for ALOMY damage to plant (100=total damage to plant; 0=no damage to plant): rate 250 g/ha
Summary of the method: (§1)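 Herbicide damage scored 0–100 at 13 d. Pre-emergence: spray 1 d after sowing; post-emergence: spray after 8 d growth. Formulation acetone/water 50:50, 0.5% Tween 20, aqueous spray.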

Avena fatua (AVEFA) [2] = test: as above; conditions: evaluated after 13 days; for pest or weed control at 250 g/ha: Avena fatua, 312 h, Rate 250 g/ha, read-out: Pre-emergence activity AVEFA (100=total damage to plant; 0=no damage to plant); for AVEFA damage to plant (100=total damage to plant; 0=no damage to plant): rate 250 g/ha
Summary of the method: as §1

[3] = test system: Echinochloa crus-galli (ECHCG); test: as above; conditions: evaluated after 13 days; for pest or weed control at 250 g/ha: Echinochloa crus-galli, 312 h, Rate 250 g/ha, read-out: Pre-emergence activity ECHCG (100=total damage to plant; 0=no damage to plant); for ECHCG damage to plant (100=total damage to plant; 0=no damage to plant): rate 250 g/ha
Summary of the method: as §1

Lolium perenne (LOLPE) [4] = test: as above; conditions: evaluated after 13 days; for pest or weed control at 250 g/ha: Lolium perenne, 312 h, Rate 250 g/ha, read-out: Pre-emergence activity LOLPE (100=total damage to plant; 0=no damage to plant); for LOLPE damage to plant (100=total damage to plant; 0=no damage to plant): rate 250 g/ha
Summary of the method: as §1

[5] = test system: Alopecurus myosuroides (ALOMY); test: Post-emergence herbicidal activity, glasshouse pot test; conditions: rate 250 g/ha, evaluated after 13 days; for pest or weed control at 250 g/ha: Alopecurus myosuroides, 312 h, read-out: Post-emergence activity ALOMY (100=total damage to plant; 0=no damage to plant)
Summary of the method: as §1

Avena fatua (AVEFA) [6] = test: as above; conditions: rate 250 g/ha, evaluated after 13 days; for pest or weed control at 250 g/ha: Avena fatua, 312 h, read-out: Post-emergence activity AVEFA (100=total damage to plant; 0=no damage to plant)
Summary of the method: as §1

[7] = test system: Echinochloa crus-galli (ECHCG); test: as above; conditions: rate 250 g/ha, evaluated after 13 days; for pest or weed control at 250 g/ha: Echinochloa crus-galli, 312 h, read-out: Post-emergence activity ECHCG (100=total damage to plant; 0=no damage to plant)
Summary of the method: as §1

Lolium perenne (LOLPE) [8] = test: as above; conditions: rate 250 g/ha, evaluated after 13 days; for pest or weed control at 250 g/ha: Lolium perenne, 312 h, read-out: Post-emergence activity LOLPE (100=total damage to plant; 0=no damage to plant)
Summary of the method: as §1

Structure (SMILES) | pest or weed control at 250 g/ha ([1]; pre-emergence spray) | pest or weed control at 250 g/ha (Avena fatua (AVEFA) [2]; pre-emergence spray) | pest or weed control at 250 g/ha ([3]; pre-emergence spray) | pest or weed control at 250 g/ha (Lolium perenne (LOLPE) [4]; pre-emergence spray) | pest or weed control at 250 g/ha ([5]; glasshouse) | pest or weed control at 250 g/ha (Avena fatua (AVEFA) [6]; glasshouse) | pest or weed control at 250 g/ha ([7]; glasshouse) | pest or weed control at 250 g/ha (Lolium perenne (LOLPE) [8]; glasshouse) | other results
CCc1ccc(Oc2ncc(Cl)cc2Cl)cc1C1=C(O)[C@@H]2CC[C@](C)(C1=O)C2(C)C [Example A-318] | 90% | 90% | 100% | 100% | 90% | 90% | 100% | 100% | 
CCc1ccc(Oc2ncc(Cl)cn2)cc1C1=C(O)CC(C)(C)CC1=O [Example A-288] | 90% | 60% | 100% | 100% | 100% | 90% | 100% | 90% | 
CCc1ccc(Oc2ncc(Cl)cc2Cl)cc1C1=C(O)CC2(CCOCC2)CC1=O [Example A-275] | 100% | 90% | 100% | 100% | 90% | 100% | 100% | 100% | 
CCc1ccc(Oc2ccc(Cl)c(Cl)c2)cc1C1=C(O)C(C)(C)OC(C)(C)C1=O [Example A-182] | 30% | 30% | 90% | 80% | 90% | 60% | 100% | 60% | 
CCc1ccc(Oc2ccc(C(F)(F)F)cn2)cc1C1=C(O)CC2(CCOCC2)CC1=O [Example A-267] | 100% | 100% | 100% | 100% | 100% | 100% | 100% | 100% | 
CCc1ccc(Oc2ncc(C)cn2)cc1C1=C(O)C(C)(C)OC(C)(C)C1=O [Example A-123] | 30% | 0% | 30% | 20% | 20% | 10% | 50% | 30% | 
CCc1ccc(Oc2ccc(C#N)cc2F)cc1C1=C(OC(C)=O)C(C)(C)OC(C)(C)C1=O [Example P-1] |  |  |  |  |  |  |  |  | ALOMY damage to plant (100=total damage to plant; 0=no damage to plant) ([1]; pre-emergence): 80; AVEFA damage to plant (100=total damage to plant; 0=no damage to plant) (Avena fatua (AVEFA) [2]; pre-emergence): 20; ECHCG damage to plant (100=total damage to plant; 0=no damage to plant) ([3]; pre-emergence): 100; LOLPE damage to plant (100=total damage to plant; 0=no damage to plant) (Lolium perenne (LOLPE) [4]; pre-emergence): 100; ALOMY damage to plant (100=total damage to plant; 0=no damage to plant) [5]: 80; AVEFA damage to plant (100=total damage to plant; 0=no damage to plant) (Avena fatua (AVEFA) [6]): 60; ECHCG damage to plant (100=total damage to plant; 0=no damage to plant) [7]: 100; LOLPE damage to plant (100=total damage to plant; 0=no damage to plant) (Lolium perenne (LOLPE) [8]): 90
CCc1ccc(Oc2ccc([N+](=O)[O-])cc2C#N)cc1C1=C(O)C(C)(C)OC(C)(C)C1=O [Example A-202] | 0% | 0% | 60% | 10% | 10% | 20% | 60% | 30% | 
CCc1ccc(Oc2ccc(C#N)cc2F)cc1C1=C(OC(=O)OC)C(C)(C)OC(C)(C)C1=O [Example P-4] |  |  |  |  |  |  |  |  | ALOMY damage to plant (100=total damage to plant; 0=no damage to plant) ([1]; pre-emergence): 80; AVEFA damage to plant (100=total damage to plant; 0=no damage to plant) (Avena fatua (AVEFA) [2]; pre-emergence): 60; ECHCG damage to plant (100=total damage to plant; 0=no damage to plant) ([3]; pre-emergence): 100; LOLPE damage to plant (100=total damage to plant; 0=no damage to plant) (Lolium perenne (LOLPE) [4]; pre-emergence): 100; ALOMY damage to plant (100=total damage to plant; 0=no damage to plant) [5]: 90; AVEFA damage to plant (100=total damage to plant; 0=no damage to plant) (Avena fatua (AVEFA) [6]): 60; ECHCG damage to plant (100=total damage to plant; 0=no damage to plant) [7]: 100; LOLPE damage to plant (100=total damage to plant; 0=no damage to plant) (Lolium perenne (LOLPE) [8]): 90
CCc1ccc(Oc2ncc(Cl)cc2F)cc1C1=C(O)C(C)(C)OC(C)(C)C1=O [Example A-54] | 100% | 90% | 100% | 100% | 100% | 100% | 100% | 100% | 
CCc1ccc(Oc2nc(F)c(F)c(Cl)c2F)cc1C1=C(O)C(C)(C)OC(C)(C)C1=O [Example A-151] | 30% | 20% | 70% | 50% | 20% | 20% | 70% | 30% | 
CCc1ccc(Oc2nc(Cl)c(Cl)cc2Cl)cc1C1=C(O)C(C)(C)OC(C)(C)C1=O [Example A-142] | 20% | 0% | 40% | 10% | 20% | 20% | 70% | 10% | 
CC1(C)OC(C)(C)C(O)=C(c2cc(Oc3ccc(Br)cc3F)ccc2C2CC2)C1=O [Example A-350] |  |  |  |  |  |  |  |  | pest or weed control at 250 g/ha ([1]; pre-emergence): 90%; pest or weed control at 250 g/ha (Avena fatua (AVEFA) [2]; pre-emergence): 50%; pest or weed control at 250 g/ha ([3]; pre-emergence): 100%; pest or weed control at 250 g/ha (Lolium perenne (LOLPE) [4]; pre-emergence): 100%; pest or weed control at 250 g/ha [5]: 90%; pest or weed control at 250 g/ha (Avena fatua (AVEFA) [6]): 90%; pest or weed control at 250 g/ha [7]: 100%; pest or weed control at 250 g/ha (Lolium perenne (LOLPE) [8]): 90%
CCc1ccc(Oc2ncc(C(F)(F)F)cc2C(F)(F)F)cc1C1=C(O)[C@@H]2CC[C@](C)(C1=O)C2(C)C [Example A-324] | 90% | 90% | 100% | 100% | 100% | 100% | 100% | 100% | 
